Data reported in patent publication US20070117835A1, “Methods and compositions for treating Huntington's disease” (priority 2005, published 2007).
“Also recorded” adds a separate entry of the source.

Columns and labels:
[1] = test system: transgenic Drosophila engineered to express the mutant huntingtin protein in all their neurons; details: cited from earlier work
[2] = test system: wildtype Drosophila fruit flies; experiment: Toxicity of dimebon in wild type Drosophila (eclosion number and timing); type: in vivo; details: FIG. 1
Description: Dimebon was evaluated for toxicity levels in wildtype Drosophila fruit flies. Dimebon was administered daily at doses ranging from 10 μM to 1 mM to explore its toxicity. An untreated control group was also studied in this experiment. The concentrations given were concentrations of dimebon in the food that animals drink/eat ad libitum. The food consisted of cornmeal (61.2 g), dextrose (129.4. g), yeast (32.4 g) and agar (9.3 g) in 1 liter of water. Concentrated compounds were added to melted agar food cooled to just above the point of setting (about 40° C.), mixed and dispensed.
About 500 wild type Drosophila eggs were collected on grape juice plates for 20 hours, washed with distilled water and transferred 100 per vial to grow at 25 degrees C. The adult progeny were scored after eclosing (emerging from the pupal case) beginning 10 days later to assess developmental delay and toxicity. The criteria used for toxicity were the number (%) of animals that eclose and the time of the eclosing. For example, fewer animals may emerge from the pupal case if a drug is toxic or the same number of animals may eclose but more slowly than the untreated control group.
The toxicity test employed five concentrations (10 μM, 30 μM, 100 μM, 300 μM, 1 mM) plus an untreated control and was repeated with five sets of flies. […]

[3] = test system: transgenic Drosophila engineered to express the mutant huntingtin protein in all their neurons; experiment: Climbing assay (motor function) in Drosophila model of Huntington's disease; type: in vivo
Description: The motor function of Drosophila obtained as described in the examples above was assessed by exploiting the strong negative geotropism of flies to climb upwards when they are tapped to the bottom of a vial. See, Le Bourg and Lint (1992) Hypergravity and aging in Drosophila melanogaster. 4. […] activity. Gerontology 38, 59-64. Animals were placed in a graduated vessel (e.g., a measuring cylinder). The distance climbed in 10 seconds was measured for each animal over 3 trials with a 5 minute rest period. In a separate experiment using tall thin plastic tubes rather than glass vials, the distance climbed in 30 seconds was also measured. Animals were scored for outcome without knowledge of treatment group. Flies were tested for functional rescue using a behavior assay (climbing assay) where the distance climbed was measured. […] In this assay, climbing was scored blind and each animal was given 3 trials that were then averaged. The climbing of 7 day old animals reared on 0, 10, 100 or 1,000 μM containing food was compared as was the climbing of animals on the day of eclosion. Two trials were performed. In the first, the ability to climb in large glass vials was monitored over 10 seconds. […] The second trial was similar to the first except that animals were tested in tall thin plastic tubes for climbing over 30 seconds. […] The data from the two independent climbing trials are plotted as individual data points in FIGS. 6A and 6B. A higher statistical power (e.g., 0.8) given the observed standard deviations and differences of the means may be achieved by doubling the size of the experiment for the highest concentration and increasing about 10 fold for the lower concentrations.

[4] = test system: transgenic Drosophila engineered to express the mutant huntingtin protein in all their neurons; experiment: Inhibition of mutant huntingtin-induced neurodegeneration of photoreceptor neurons (pseudopupil method); type: in vivo; details: for rescue of photoreceptor neurons compared to untreated controls: FIG. 2; for suppression of photoreceptor neuron degeneration, retest: FIG. 3
Description: Dimebon was administered to one group of transgenic Drosophila engineered to express the mutant huntingtin protein in all their neurons. This was accomplished by cloning a foreign gene into transposable p-element DNA vectors under control of a yeast upstream activator sequence that is activated by the yeast GAL4 transcription factor. These promoter fusions were injected into fly embryos to produce transgenic animals. The foreign gene is silent until crossed to another transgenic strain of flies expressing the GAL4 gene in a tissue specific manner. The Elav>Gal4 which expresses the transgene in all neurons from birth until death was used in the experiments described.
For compound testing, 20-30 Httex1pQ93 virgins were mated to elav>Gal4 males and eggs were collected for about 20 hours at 25° C. and dispensed into vials (expected about 70% lethality from Htt effects). Upon eclosion, at least 80, 0-8 hour old flies were harvested and place on drug-containing food (20 eclosed adults per vial) and scored when 7 days old. Inhibitor-containing food was prepared just before tester flies began to emerge.
The two types of transgenic animals were crossed in order to collect enough closely matched aged controls to study. The crossed aged-matched adults (about 20 per dosing group) were placed on drug-containing food for 7 days. Animals were transferred to fresh food daily to minimize any effects caused by instability of the compounds. Survival was scored daily. The average number of photoreceptors at day zero was determined by scoring 7-10 of the newly eclosed tester siblings within six hours of eclosing. This established the baseline of degeneration at the time of exposure to drug. At day 7, animals were sacrificed and the number of photoreceptor neurons surviving was counted. […] For pseudopupil analysis, flies were decapitated and the heads are mounted in a drop of nail polish on a microscopic slide. The head was then covered with immersion oil and light is projected through the eye of the fly using a Nikon EFD-3/Optiphot-2 compound microscope with a 50× oil objective.

| Compound | rescue of photoreceptor neurons (historical positive control) [1] | timing of emergence slowed ([2]; 1 mM dose) | toxicity (number of animals that eclose and time of eclosing) ([2]; 10 to 300 μM in the food, below 1 mM, dihydrochloride) | climbing behavior, distance climbed in 10 seconds ([3]; 1 mM (1000 μM), 7 day old animals, glass vials, FIG. 5, dihydrochloride) | raw climbing data, FIG. 6 panel A ([3]; 1 mM vs D7ND (Day 7 no drug), legend says measured over 30 seconds) | climbing behavior, distance climbed in 30 seconds ([3]; 10, 100 or 1,000 μM, 7 day old animals, tall thin plastic tubes) | rescue of photoreceptor neurons compared to untreated controls ([4]; 10 μM, 7 days) | suppression of photoreceptor neuron degeneration, retest ([4]; 100 μM vs zero drug controls, dihydrochloride) | rescue of photoreceptor neurons compared to untreated controls ([4]; 100 μM, 7 days on drug-containing food) | rescue of photoreceptor neurons compared to untreated controls ([4]; 1 mM, 7 days) | previously measured optimum concentration for photoreceptor rescue ([4]; concentration in food) [µM] | protection of photoreceptors, dose dependence ([4]; day 7, pseudopupil scoring) | suppression of photoreceptor neuron degeneration, retest ([4]; higher doses (300 or 1,000 μM) vs zero drug controls) |
| --- | --- | --- | --- | --- | --- | --- | --- | --- | --- | --- | --- | --- | --- |
| C[C@@H](N)[C@H]1CC[C@H](C(=O)Nc2ccncc2)CC1 [Y-27632] | strongly rescuing |  |  |  |  |  |  |  |  |  |  |  |  |
| Cc1ccc2c(c1)c1c(n2CCc2ccc(C)nc2)CCN(C)C1.Cl.Cl [dimebon, 2,8-dimethyl-5-(2-(6-methyl-3-pyridyl)-ethyl)-2,3,4,5-tetrahydro-1H-pyrido[4,3-b]indole dihydrochloride] |  | approximately 1 day | generally well tolerated; also recorded: no significant toxicity | significant difference between the control and 1000 μM; also recorded: statistically significant improvement in climbing | statistical difference between D7ND and 1 mM | no statistically demonstrable difference between treated and control groups | lesser but still apparent rescue of neurons | significant improvement; also recorded: significant rescue | statistically significant (p=0.0014) rescue of neurons | still appeared to cause neuronal rescue, but to a lesser extent than the 100 μM or 10 μM dimebon doses | 100 | protect photoreceptors in a dose-dependant manner | no statistically demonstrable improvement |
